These are literature values, as cited in US20240423997A1, “METHOD OF TREATING AMYOTROPHIC LATERAL SCLEROSIS” (priority 2021, published 2024).

The conditions of the series: in vivo; Shibuya 2001; cited from earlier work.

In the case of `O=S(=O)(c1cccc2c(O)nccc12)N1CCCNCC1` [M3, hydroxyfasudil], the half-life result is “about 8 hours”.
